According to paper PMC9487510, “A Novel Oral GyrB/ParE Dual Binding Inhibitor Effective against Multidrug-Resistant Neisseria gonorrhoeae and Other High-Threat Pathogens” (Antimicrobial Agents and Chemotherapy, 2022):
Read-outs that look alike come from different tables or passages of the source.

Tested on: N. gonorrhoeae clinical isolates
Experiment: MIC, agar dilution (CLSI)
Format: cell-based, Neisseria gonorrhoeae
Conditions: for MIC: read-out: MIC

CO/N=C(\C(=O)N[C@@H]1C(=O)N2C(C(=O)O)=C(CSc3nc(=O)c(=O)[nH]n3C)CS[C@H]12)c1csc(N)n1 [Cro, ceftriaxone]
<0.002 to 0.125 µg/mL: MIC range (96 clinical isolates)
0.016 µg/mL: MIC (Neisseria gonorrhoeae, strain CDC8 (GCREF2012 004)) | MIC (Neisseria gonorrhoeae, strain CDC29 (GCREF2012 026)) | MIC (Neisseria gonorrhoeae, strain CDC56 (GCREF2013 002)) | MIC (Neisseria gonorrhoeae, strain CDC65 (GCREF2013 010)) | MIC (Neisseria gonorrhoeae, strain CDC68 (GCREF2013 016)) | MIC (Neisseria gonorrhoeae, strain CDC75 (GCREF2013 023)) | MIC (Neisseria gonorrhoeae, strain CDC76 (GCREF2013 024)) | MIC (Neisseria gonorrhoeae, strain CDC78 (GCREF2013 026)) | MIC (Neisseria gonorrhoeae, strain CDC79 (GCREF2013 027)) | MIC (Neisseria gonorrhoeae, strain CDC93 (GCREF2013 042)) | MIC (Neisseria gonorrhoeae, strain CDC96 (GCREF2013 046))
0.031 µg/mL: MIC (Neisseria gonorrhoeae, strain CDC1 (GCREF2012 016)) | MIC (Neisseria gonorrhoeae, strain CDC2 (GCREF2012 045)) | MIC (Neisseria gonorrhoeae, strain CDC3 (GCREF2013 013)) | MIC (Neisseria gonorrhoeae, strain CDC4 (GCREF2013 030)) | MIC (Neisseria gonorrhoeae, strain CDC9 (GCREF2012 005)) | MIC (Neisseria gonorrhoeae, strain CDC10 (GCREF2012 006)) | MIC (Neisseria gonorrhoeae, strain CDC11 (GCREF2012 007)) | MIC (Neisseria gonorrhoeae, strain CDC12 (GCREF2012 008)) | MIC (Neisseria gonorrhoeae, strain CDC13 (GCREF2012 009)) | MIC (Neisseria gonorrhoeae, strain CDC14 (GCREF2012 010)) | MIC (Neisseria gonorrhoeae, strain CDC21 (GCREF2012 018)) | MIC (Neisseria gonorrhoeae, strain CDC23 (GCREF2012 020)) | MIC (Neisseria gonorrhoeae, strain CDC25 (GCREF2012 022)) | MIC (Neisseria gonorrhoeae, strain CDC26 (GCREF2012 023)) | MIC (Neisseria gonorrhoeae, strain CDC27 (GCREF2012 024)) | MIC (Neisseria gonorrhoeae, strain CDC28 (GCREF2012 025)) | MIC (Neisseria gonorrhoeae, strain CDC30 (GCREF2012 027)) | MIC (Neisseria gonorrhoeae, strain CDC31 (GCREF2012 028)) | MIC (Neisseria gonorrhoeae, strain CDC36 (GCREF2012 033)) | MIC (Neisseria gonorrhoeae, strain CDC37 (GCREF2012 034)) | MIC (Neisseria gonorrhoeae, strain CDC38 (GCREF2012 035)) | MIC (Neisseria gonorrhoeae, strain CDC39 (GCREF2012 036)) | MIC (Neisseria gonorrhoeae, strain CDC40 (GCREF2012 037)) | MIC (Neisseria gonorrhoeae, strain CDC41 (GCREF2012 038)) | MIC (Neisseria gonorrhoeae, strain CDC42 (GCREF2012 039)) | MIC (Neisseria gonorrhoeae, strain CDC43 (GCREF2012 040)) | MIC (Neisseria gonorrhoeae, strain CDC46 (GCREF2012 043)) | MIC (Neisseria gonorrhoeae, strain CDC47 (GCREF2012 044)) | MIC (Neisseria gonorrhoeae, strain CDC48 (GCREF2012 046)) | MIC (Neisseria gonorrhoeae, strain CDC49 (GCREF2012 047)) | MIC (Neisseria gonorrhoeae, strain CDC55 (GCREF2013 001)) | MIC (Neisseria gonorrhoeae, strain CDC60 (GCREF2013 005)) | MIC (Neisseria gonorrhoeae, strain CDC61 (GCREF2013 006)) | MIC (Neisseria gonorrhoeae, strain CDC69 (GCREF2013 017)) | MIC (Neisseria gonorrhoeae, strain CDC72 (GCREF2013 020)) | MIC (Neisseria gonorrhoeae, strain CDC81 (GCREF2013 029)) | MIC (Neisseria gonorrhoeae, strain CDC82 (GCREF2013 031)) | MIC (Neisseria gonorrhoeae, strain CDC88 (GCREF2013 037)) | MIC (Neisseria gonorrhoeae, strain CDC90 (GCREF2013 039)) | MIC (Neisseria gonorrhoeae, strain CDC92 (GCREF2013 041)) | MIC (Neisseria gonorrhoeae, strain CDC95 (GCREF2013 045)) | MIC (Neisseria gonorrhoeae, strain CDC97 (GCREF2013 047)) | MIC (Neisseria gonorrhoeae, strain CDC100 (GCREF2013 015)) | MIC50 (Neisseria gonorrhoeae, 96 clinical isolates, read-out: MIC50)
0.008 µg/mL: MIC (Neisseria gonorrhoeae, strain CDC15 (GCREF2012 011)) | MIC (Neisseria gonorrhoeae, strain CDC19 (GCREF2012 015)) | MIC (Neisseria gonorrhoeae, strain CDC22 (GCREF2012 019)) | MIC (Neisseria gonorrhoeae, strain CDC51 (GCREF2012 049)) | MIC (Neisseria gonorrhoeae, strain CDC52 (GCREF2012 050)) | MIC (Neisseria gonorrhoeae, strain CDC62 (GCREF2013 007)) | MIC (Neisseria gonorrhoeae, strain CDC64 (GCREF2013 009)) | MIC (Neisseria gonorrhoeae, strain CDC66 (GCREF2013 011)) | MIC (Neisseria gonorrhoeae, strain CDC67 (GCREF2013 014)) | MIC (Neisseria gonorrhoeae, strain CDC71 (GCREF2013 019)) | MIC (Neisseria gonorrhoeae, strain CDC73 (GCREF2013 021)) | MIC (Neisseria gonorrhoeae, strain CDC74 (GCREF2013 022)) | MIC (Neisseria gonorrhoeae, strain CDC77 (GCREF2013 025)) | MIC (Neisseria gonorrhoeae, strain CDC80 (GCREF2013 028)) | MIC (Neisseria gonorrhoeae, strain CDC83 (GCREF2013 032)) | MIC (Neisseria gonorrhoeae, strain CDC84 (GCREF2013 033)) | MIC (Neisseria gonorrhoeae, strain CDC86 (GCREF2013 035)) | MIC (Neisseria gonorrhoeae, strain CDC89 (GCREF2013 038)) | MIC (Neisseria gonorrhoeae, strain CDC94 (GCREF2013 043)) | MIC (Neisseria gonorrhoeae, strain CDC98 (GCREF2013 048)) | MIC (Neisseria gonorrhoeae, strain CDC99 (GCREF2013 012))
0.125 µg/mL: MIC (Neisseria gonorrhoeae, strain CDC33 (GCREF2012 030)) | MIC (Neisseria gonorrhoeae, strain CDC34 (GCREF2012 031)) | MIC (Neisseria gonorrhoeae, strain CDC35 (GCREF2012 032)) | MIC (Neisseria gonorrhoeae, strain CDC45 (GCREF2012 042)) | MIC (Neisseria gonorrhoeae, strain CDC91 (GCREF2013 040))
0.063 µg/mL: MIC (Neisseria gonorrhoeae, strain CDC5 (GCREF2012 001)) | MIC (Neisseria gonorrhoeae, strain CDC6 (GCREF2012 002)) | MIC (Neisseria gonorrhoeae, strain CDC16 (GCREF2012 012)) | MIC (Neisseria gonorrhoeae, strain CDC18 (GCREF2012 014)) | MIC (Neisseria gonorrhoeae, strain CDC20 (GCREF2012 017)) | MIC (Neisseria gonorrhoeae, strain CDC24 (GCREF2012 021)) | MIC (Neisseria gonorrhoeae, strain CDC32 (GCREF2012 029)) | MIC (Neisseria gonorrhoeae, strain CDC50 (GCREF2012 048)) | MIC (Neisseria gonorrhoeae, strain CDC87 (GCREF2013 036)) | MIC90 (Neisseria gonorrhoeae, 96 clinical isolates, read-out: MIC90)
0.004 µg/mL: MIC (Neisseria gonorrhoeae, strain CDC53 (GCREF2012 051)) | MIC (Neisseria gonorrhoeae, strain CDC54 (GCREF2012 052)) | MIC (Neisseria gonorrhoeae, strain CDC57 (GCREF2013 003)) | MIC (Neisseria gonorrhoeae, strain CDC58 (GCREF2013 004)) | MIC (Neisseria gonorrhoeae, strain CDC59 (GCREF2013 044)) | MIC (Neisseria gonorrhoeae, strain CDC70 (GCREF2013 018))
